Data on one compound can be found in patent publication US20050137261A1, “Method for treating inflammatory bowel diseases” (MEIJI DAIRIES CORPORATION, priority 2003, published 2005).

The structures appear in SMILES notation.

Assay [1] deals with dextran sodium sulfate (DSS) colitis. The experiment in a line: DSS colitis in mice: survival rate and HE-staining of the large intestine. The format is in vivo, C57/BL6 Mice. On the procedure:
C57/BL6 Mice (female, 8 weeks old) were employed. They were bred under SPF conditions, and then used in the test. 2.5% Dextran sodium sulfate (DSS, MW 50,000) was added to drinking water (distilled water) for mice, and the mice were allowed to drink the resultant water freely for 7 days (induction of colitis). Subsequently, DHNA was administered to the mice in the following manner. DHNA was dissolved in dimethyl sulfoxide (DMSO) (0.1 g/0.5 mL). The resultant neat solution, along with ascorbic acid for stabilizing DHNA (1%), was added to drinking water (distilled water) for mice, and the mice were allowed to drink the resultant water freely for 7 days. DHNA concentration was 0.6 mg/kg or 2 mg/kg. Distilled water to which DMSO and ascorbic acid had been added in equal amounts was employed as a control group. Survival rate was that as determined for the mice on day 10 after starting administration of DHNA. The large intestine was removed from each mouse, and fixed with periodate-lysine-paraformaldehyde (PLP), whereby frozen slices were prepared. Through use of the thus-obtained frozen sections, immunohistochemical staining using labeled streptavidin-biotin (LSAB) and HE-staining were performed. In the immunohistochemical staining, anti-MAdCAM-1 and anti-β7integrin were used as primary antibodies and biotin-labeled FITC was employed as a secondary antibody.

Another assay relates to Bifidobacterium bifidum. The settings on record: taught by WO03/016544; cited from earlier work.
For assay [2] the following is noted: subject of milk intolerance; DHNA or its salts; taught by WO03/016544; cited from earlier work.
For a further assay, the system named is MAdCAM-1. The experiment in a line: Immunohistochemical staining (LSAB) of large intestine sections, DSS colitis, anti-MAdCAM-1. The format is in vivo, C57/BL6 Mice. The following applies: large intestine frozen sections, DHNA administration group. How it is done: (§1) C57/BL6 Mice (female, 8 weeks old) were employed. They were bred under SPF conditions, and then used in the test.
(§2) 2.5% Dextran sodium sulfate (DSS, MW 50,000) was added to drinking water (distilled water) for mice, and the mice were allowed to drink the resultant water freely for 7 days (induction of colitis). Subsequently, DHNA was administered to the mice in the following manner.
(§3) DHNA was dissolved in dimethyl sulfoxide (DMSO) (0.1 g/0.5 mL). The resultant neat solution, along with ascorbic acid for stabilizing DHNA (1%), was added to drinking water (distilled water) for mice, and the mice were allowed to drink the resultant water freely for 7 days. DHNA concentration was 0.6 mg/kg or 2 mg/kg. Distilled water to which DMSO and ascorbic acid had been added in equal amounts was employed as a control group.
(§4) The large intestine was removed from each mouse, and fixed with periodate-lysine-paraformaldehyde (PLP), whereby frozen slices were prepared. Through use of the thus-obtained frozen sections, immunohistochemical staining using labeled streptavidin-biotin (LSAB) and HE-staining were performed. In the immunohistochemical staining, anti-MAdCAM-1 and anti-β7integrin were used as primary antibodies and biotin-labeled FITC was employed as a secondary antibody.

The test system of a further assay is β7 positive cells. Nature of the assay: Immunohistochemical staining (LSAB) of large intestine sections, DSS colitis, anti-β7integrin. Format: in vivo, C57/BL6 Mice. The settings on record: large intestine frozen sections, DHNA administration group. On the procedure:
as §1, §2, §3, §4

For `O=C(O)c1cc(O)c2ccccc2c1O` [DHNA, 1,4-dihydroxy-2-naphthoic acid], in assay [1] (day 10 after starting the test, DHNA 0.6 mg/kg or 2 mg/kg in drinking water for 7 days after 2.5% DSS for 7 days, versus control group), the Survival rate result is listed as “significantly high”. For the same compound, the “HE-staining findings: ulcer and erosion in the epithelium, cellular infiltration, submucosal thickening” value in assay [1] (large intestine, DHNA administration group versus control group) is “suppression of the above conditions was observed”. Also, the “Development of DSS enteritis” value in assay [1] (overall conclusion, by suppressing infiltration of activated immunocytes) is reported as “suppress development of DSS enteritis”. The “Proliferation of Bifidobacterium bifidum” value in the assay on Bifidobacterium bifidum was “stimulating proliferation”. Also, the “Abdominal discomfort after ingestion of milk” value in assay [2] is given as “mitigate abdominal discomfort”. In addition, the “Expression of adhesion molecule MAdCAM-1” value with MAdCAM-1 was “suppressed”. In addition, the “β7 positive cells (immunohistochemical staining)” value in the assay with β7 positive cells is on record as “reduced”.
